Source: patent US9284283B2, “Macrocyclic compounds for modulating IL-17” (ENSEMBLE THERAPEUTICS CORPORATION, priority 2012, dated 2016)
Several values for one entry are separate records, joined by “and”; a condition that tells them apart may be missing. Equal values may be shown once.

Molecular target: T1, IL17A (Homo sapiens, UniProt Q16552)
T1 sequence (Q16552 24-155): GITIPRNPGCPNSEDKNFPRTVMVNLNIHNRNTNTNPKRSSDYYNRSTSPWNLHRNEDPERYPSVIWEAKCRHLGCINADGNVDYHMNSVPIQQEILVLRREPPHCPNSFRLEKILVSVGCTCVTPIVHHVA
Test: Surface Plasmon Resonance (SPR) analysis of compound interactions with IL17A
Settings: SPR binding to IL17A
Method: SPR analysis was carried out with a GE Healthcare (Piscataway, N.J.) Biacore X100 system. Typically, the chip (NTA Biacore Biosensor chip; GE Healthcare BR-1000-34) was first conditioned by injection of 0.35 M EDTA, which also served to remove any immobilized proteins from previous runs. Before immobilization of the recombinant 6-His-tagged IL17, the chip was washed with 0.5 mM nickel chloride in NTA buffer (10 mM HEPES buffer, 0.15 M sodium chloride, 10 μM ethylene diamine tetraacetic acid, 0.005% v/v surfactant P20 (GE Healthcare BR-1000-54)) to form a nickel chelate on the chip. IL17 protein was immobilized onto a NTA chip through its 6-His tag. IL17A was typically injected at 0.25 μM for 60-120 seconds, followed by a stabilization step washing with NTA+0.5% DMSO for 120 seconds or longer.
Five 2-fold or 3-fold serial dilutions of test compound were injected serially onto the chip. All steps were conducted using NTA buffer containing 0.5% v/v dimethylsulfoxide (DMSO). Compounds were diluted from stock solutions of 10 mM concentration in 100% DMSO with NTA buffer to obtain 50 μM solutions in NTA+0.5% DMSO. Subsequent 2× or 3× dilutions were made in NTA+0.5% DMSO. Compound was generally injected for 180 seconds followed by washing the chip in buffer alone for 120 seconds. The rate of refractive index change (RU units/time) and the maximum extend of RU change was measured during the “on” phase of analyte injection, followed by measuring the rate during the “off” phase.
Kinetic parameter fits were conducted using the Biacore SPR Evaluation Program (GE Healthcare) for 1:1 molecular binding fits, after subtracting the baseline average of 2 or more runs in which no analyte was injected. This program then reports the best fit average for the “on” rate (Ka), the “off” rate (Kd) and the dissociation constant (KD) (Chaiken, I et al., Anal Biochem 201, 197-210 (1992)). A separate program in the Biacore SPR Evaluation Program then calculates the best fit for Kd based upon the extent of binding alone (RU units bound) at each concentration of analyte and reports the best fit Kd by best fit to a Lineweaver-Burke plot. Typically, the Kd value calculated through both means agreed within a factor of three.
The presence and activity of IL17 on the NTA chip was routinely confirmed three ways: • 1) An increase in response units (RU) upon immobilization confirms that the IL17 was immobilized on the chip; • 2) Anti-IL17 was also injected on the chip to confirm the presence of IL17; and • 3) IL17R was injected onto the chip to confirm that the immobilized IL17 retained its binding activity for its receptor. Negative controls to access specificity for compound binding were conducted by immobilizing unrelated, but his-tagged, proteins (such as cyclophilin D) and conducting the same analysis as done with IL17A.

| Kd | Compound |
| --- | --- |
| 1000 to 10000 nM | COC(=O)[C@H]1CCCCNC(=O)CCCNC(=O)[C@H](Cc2ccc(NC(=O)[C@H](Cc3ccccc3)NC(=O)Cc3ccccc3)cc2)NC(=O)CC2(CCCC2)CC(=O)N1 [Compound 104] |
| 1000 to 10000 nM and 100 to 1000 nM | COC(=O)[C@@H]1CCCCNC(=O)CCCNC(=O)[C@H](Cc2ccc(NC(=O)[C@H](Cc3ccccc3F)NC(=O)Cc3ccccc3)cc2)NC(=O)CC2(CCCC2)CC(=O)N1 [Compound 105] |
| 100 to 1000 nM | COC(=O)[C@@H]1CCCCNC(=O)CCCCCNC(=O)[C@@H](Cc2ccc(NC(=O)[C@H](Cc3ccccc3F)NC(=O)Cc3ccccc3)cc2)NC(=O)CC2(CCCC2)CC(=O)N1 [Compound 111] |
| 100 to 1000 nM | COC(=O)[C@@H]1CCCCNC(=O)CCCNC(=O)[C@@H](Cc2ccc(NC(=O)[C@H](Cc3ccccc3)NC(=O)Cc3ccccc3)cc2)NC(=O)CC2(CCCC2)CC(=O)N1 [Compound 114] |
| 100 to 1000 nM | COC(=O)[C@@H]1CCCCNC(=O)CCCNC(=O)[C@@H](Cc2ccc(NC(=O)[C@H](Cc3ccccc3)NC(=O)c3ccccc3)cc2)NC(=O)CC2(CCCC2)CC(=O)N1 [Compound 115] |
| 100 to 1000 nM | COC(=O)[C@@H]1CCCCNC(=O)CCCNC(=O)[C@@H](Cc2ccc(NC(=O)[C@H](Cc3cccc(F)c3)NC(=O)Cc3ccccc3)cc2)NC(=O)CC2(CCCC2)CC(=O)N1 [Compound 116] |
| 100 to 1000 nM | COC(=O)[C@@H]1CCCCNC(=O)CCCNC(=O)[C@@H](Cc2ccc(NC(=O)[C@H](Cc3cccc(F)c3)NC(=O)c3ccccc3)cc2)NC(=O)CC2(CCCC2)CC(=O)N1 [Compound 117] |
| 100 to 1000 nM | COC(=O)[C@@H]1CCCCNC(=O)CCCNC(=O)[C@@H](Cc2ccc(NC(=O)[C@H](Cc3ccc(F)cc3)NC(=O)c3ccccc3)cc2)NC(=O)CC2(CCCC2)CC(=O)N1 [Compound 119] |
| 100 to 1000 nM | COC(=O)[C@@H]1CCCCNC(=O)CCCNC(=O)[C@@H](Cc2ccc(NC(=O)[C@H](Cc3ccccc3Br)NC(=O)c3ccccc3)cc2)NC(=O)CC2(CCCC2)CC(=O)N1 [Compound 121] |
| 1000 to 10000 nM | CC[C@H](C)[C@H](NC(=O)c1ccccc1)C(=O)Nc1ccc(C[C@H]2NC(=O)CC3(CCCC3)CC(=O)N[C@H](C(=O)OC)CCCCNC(=O)CCCNC2=O)cc1 [Compound 123] |
| 100 to 1000 nM | COC(=O)[C@@H]1CCCCNC(=O)CCCNC(=O)[C@@H](Cc2ccc(NC(=O)[C@H](Cc3ccc(-c4ccccc4)cc3)NC(=O)Cc3ccccc3)cc2)NC(=O)CC2(CCCC2)CC(=O)N1 [Compound 124] |
| 100 to 1000 nM | COC(=O)[C@@H]1CCCCNC(=O)CCCNC(=O)[C@@H](Cc2ccc(NC(=O)[C@H](Cc3ccc(-c4ccccc4)cc3)NC(=O)c3ccccc3)cc2)NC(=O)CC2(CCCC2)CC(=O)N1 [Compound 125] |
| 100 to 1000 nM | COC(=O)[C@@H]1CCCCNC(=O)CCCNC(=O)[C@@H](Cc2ccc(NC(=O)[C@H](Cc3ccccc3C)NC(=O)Cc3ccccc3)cc2)NC(=O)CC2(CCCC2)CC(=O)N1 [Compound 126] |
| 100 to 1000 nM | COC(=O)[C@@H]1CCCCNC(=O)CCCNC(=O)[C@@H](Cc2ccc(NC(=O)[C@H](Cc3ccccc3C)NC(=O)c3ccccc3)cc2)NC(=O)CC2(CCCC2)CC(=O)N1 [Compound 127] |
| 100 to 1000 nM | COC(=O)[C@@H]1CCCCNC(=O)CCCNC(=O)[C@@H](Cc2ccc(NC(=O)[C@H](Cc3ccccc3F)NC(=O)c3ccccc3)cc2)NC(=O)CC2(CCCC2)CC(=O)N1 [Compound 128] |
| 100 to 1000 nM | COC(=O)[C@@H]1Cc2ccc(cc2)NC(=O)CCCNC(=O)[C@@H](Cc2ccc(NC(=O)[C@H](Cc3ccccc3F)NC(=O)c3ccccc3)cc2)NC(=O)CC2(CCCC2)CC(=O)N1 [Compound 134] |
| 100 to 1000 nM | COC(=O)[C@@H]1Cc2ccc(cc2)NC(=O)CCCNC(=O)[C@@H](Cc2ccc(NC(=O)[C@H](Cc3ccccc3F)NC(=O)Cc3ccccc3)cc2)NC(=O)CC2(CCCC2)CC(=O)N1 [Compound 135] |
| < 100 nM | COC(=O)[C@H]1CCCCNC(=O)CCCNC(=O)[C@@H](Cc2ccc(NC(=O)[C@H](Cc3ccccc3F)NC(=O)c3ccccc3)cc2)NC(=O)CC2(CCCC2)CC(=O)N1 [Compound 136] |
| 100 to 1000 nM | COC(=O)[C@@H]1CCCCNC(=O)CCCNC(=O)[C@H](Cc2ccc(NC(=O)[C@H](Cc3ccccc3F)NC(=O)c3ccccc3)cc2)NC(=O)CC2(CCCC2)CC(=O)N1 [Compound 137] |
| 100 to 1000 nM | COC(=O)[C@H]1CCCCNC(=O)CCCNC(=O)[C@@H](Cc2ccc(NC(=O)[C@H](Cc3ccccc3)NC(=O)Cc3ccccc3)cc2)NC(=O)CC2(CCCC2)CC(=O)N1 [Compound 138] |

| Kd | Compound |
| --- | --- |
| 100 to 1000 nM | COC(=O)[C@H]1CCCCNC(=O)CCCNC(=O)[C@@H](Cc2ccc(NC(=O)[C@H](Cc3ccccc3)NC(=O)c3ccccc3)cc2)NC(=O)CC2(CCCC2)CC(=O)N1 [Compound 139] |
| 100 to 1000 nM | COC(=O)[C@@H]1CCCCNC(=O)CCCNC(=O)[C@@H](Cc2ccc(NC(=O)[C@H](Cc3ccccc3)NC(=O)Cc3ccc(C(F)(F)F)cc3)cc2)NC(=O)CC2(CCCC2)CC(=O)N1 [Compound 140] |
| < 100 nM | COC(=O)[C@H]1CCCCNC(=O)C(C)(C)NC(=O)[C@@H](Cc2ccc(NC(=O)[C@H](Cc3ccccc3Cl)NC(=O)Cc3ccccc3)cc2)NC(=O)CC2(CCCC2)CC(=O)N1 [Compound 145] |
| < 100 nM | COC(=O)[C@H]1CCCCNC(=O)C(C)(C)NC(=O)[C@@H](Cc2ccc(NC(=O)[C@H](Cc3ccccc3Cl)NC(=O)c3ccccc3)cc2)NC(=O)CC2(CCCC2)CC(=O)N1 [Compound 146] |
| 100 to 1000 nM | COC(=O)[C@H]1CCCCNC(=O)[C@H](CO)NC(=O)[C@@H](Cc2ccc(NC(=O)[C@H](Cc3ccccc3Cl)NC(=O)Cc3ccccc3)cc2)NC(=O)CC2(CCCC2)CC(=O)N1 [Compound 147] |
| 100 to 1000 nM | COC(=O)[C@H]1CCCCNC(=O)[C@H](CO)NC(=O)[C@@H](Cc2ccc(NC(=O)[C@H](Cc3ccccc3Cl)NC(=O)c3ccccc3)cc2)NC(=O)CC2(CCCC2)CC(=O)N1 [Compound 148] |
| < 100 nM | COC(=O)[C@H]1CCCCNC(=O)CNC(=O)[C@@H](Cc2ccc(NC(=O)[C@H](Cc3ccccc3F)NC(=O)Cc3ccccc3)cc2)NC(=O)CC2(CCCC2)CC(=O)N1 [Compound 149] |
| < 100 nM | COC(=O)[C@H]1CCCCNC(=O)CNC(=O)[C@@H](Cc2ccc(NC(=O)[C@H](Cc3ccccc3F)NC(=O)c3ccccc3)cc2)NC(=O)CC2(CCCC2)CC(=O)N1 [Compound 150] |
| < 100 nM | COC(=O)[C@@H]1CCCCNC(=O)CNC(=O)[C@@H](Cc2ccc(NC(=O)[C@H](Cc3ccccc3F)NC(=O)c3ccccc3)cc2)NC(=O)CC2(CCCC2)CC(=O)N1 [Compound 151] |
| 100 to 1000 nM | CC(=O)N[C@@H](Cc1ccccc1Cl)C(=O)Nc1ccc(C[C@H]2NC(=O)CC3(CCCC3)CC(=O)NCCCNC(=O)CNC2=O)cc1 [Compound 152] |
| < 100 nM | CC(=O)N[C@@H](Cc1ccccc1Cl)C(=O)Nc1ccc(C[C@H]2NC(=O)CC3(CCCC3)CC(=O)NCCCCCNC(=O)CCNC2=O)cc1 [Compound 154] |
| < 100 nM | CC(=O)N[C@@H](Cc1ccccc1Cl)C(=O)Nc1ccc(C[C@H]2NC(=O)CC3(CCCC3)CC(=O)NCCCCCNC(=O)CCCNC2=O)cc1 [Compound 155] |
| < 100 nM | O=C1CNC(=O)[C@@H](Cc2ccc(NC(=O)[C@H](Cc3ccccc3Cl)NC(=O)Cc3ccccc3)cc2)NC(=O)CC2(CCCC2)CC(=O)NCCCN1 [Compound 156] |
| < 100 nM | O=C1CCNC(=O)[C@@H](Cc2ccc(NC(=O)[C@H](Cc3ccccc3Cl)NC(=O)Cc3ccccc3)cc2)NC(=O)CC2(CCCC2)CC(=O)NCCCN1 [Compound 157] |
| < 100 nM | O=C1CCNC(=O)[C@@H](Cc2ccc(NC(=O)[C@H](Cc3ccccc3Cl)NC(=O)Cc3ccccc3)cc2)NC(=O)CC2(CCCC2)CC(=O)NCCCCCN1 [Compound 160] |
| < 100 nM | O=C1CCCNC(=O)[C@@H](Cc2ccc(NC(=O)[C@H](Cc3ccccc3Cl)NC(=O)Cc3ccccc3)cc2)NC(=O)CC2(CCCC2)CC(=O)NCCCCCN1 [Compound 161] |
| < 100 nM | O=C1CNC(=O)[C@@H](Cc2ccc(NC(=O)[C@H](Cc3ccccc3Cl)NC(=O)Cc3ccccc3)cc2)NC(=O)CC2(CCCC2)CC(=O)NCCCCN1 [Compound 162] |
| < 100 nM | CC(=O)N[C@@H](Cc1ccccc1Cl)C(=O)Nc1ccc(C[C@H]2NC(=O)CC3(CCCC3)CC(=O)NCCCCNC(=O)CNC2=O)cc1 [Compound 163] |
| < 100 nM | CC(=O)N[C@@H](Cc1ccccc1Cl)C(=O)Nc1ccc(C[C@H]2NC(=O)CC3(CCCC3)CC(=O)NCCCCNC(=O)CCNC2=O)cc1 [Compound 165] |
